Laboratory results taken from patent US20180282415A1, “Combination of a PD-1 Axis Binding Antagonist and an ALK Inhibitor for Treating ALK-Negative Cancer” (Merck Patent GmbH, priority 2015, published 2018).

Key:
[1] = test system: peripheral blood mononuclear cells (PMBCs); settings: published studies (Stehle et al. 2013); cited from earlier work
[2] = test system: activated T cells; experiment: T cell viability, Cell-Titer Glo Luminescent Cell Viability Assay; type: cell-based, human; settings: for Luciferase RLU (T cell viability): log[Agonist]
Description: Briefly, human cells were isolated from healthy donors' PBMCs by using EasySep™ Human T Cell Enrichment Kit (Stemcell Technologies) according to manufacturer's instruction. […] Cells were cultured in RPMI 1640 medium supplemented with 10% FCS and 100 I.U./mL penicillin/streptomycin in humidified incubator at 37° C. with 5% CO2. […] Culture supernatants were collected on Day 2 or 3 for cytokine analysis. Plates were then harvested on DNA specific filter papers (Perkin Elmer) using Harvester96 (Tomtec Life Sciences). The radiolabeled filters were covered with beta scintillation liquid (Perkin Elmer) and read in Microbeta® counter plates (Perkin Elmer). ^3H Thymidine was pulsed on Day 2 for T cell proliferation assay. The impact by sunitinib and axitinib on T cell proliferation and viability were repeated as previously published (FIGS. 1A and 1B).
Cell viability was measured by Cell-Titer Glo Luminescent Cell Viability Assay® (Promega, Madison). […] Table 4 below provides the Luciferase RLU values reflecting T cell viability for each of the respective inhibitors.

[3] = test system: CD3/CD28-stimulated effector cells (T cells from healthy donors' PBMCs); experiment: T cell proliferation assay (3H thymidine incorporation), CD3/CD28-stimulated T cells; type: cell-based, human; settings: for Thymidine incorporation(CPM): log[Agonist]
Excerpt: Briefly, human cells were isolated from healthy donors' PBMCs by using EasySep™ Human T Cell Enrichment Kit (Stemcell Technologies) according to manufacturer's instruction. […] Culture supernatants were collected on Day 2 or 3 for cytokine analysis. Plates were then harvested on DNA specific filter papers (Perkin Elmer) using Harvester96 (Tomtec Life Sciences). The radiolabeled filters were covered with beta scintillation liquid (Perkin Elmer) and read in Microbeta® counter plates (Perkin Elmer). ^3H Thymidine was pulsed on Day 2 for T cell proliferation assay.

[4] = test system: MC38 colon carcinoma; experiment: In vivo tumor efficacy, MC38 model, crizotinib with anti-PD-L1 (Example 3); parameters: species or system C57BL/6 mice; settings: crizotinib 40 mg/kg, anti-mPDL1 10 mg/kg
Description: (§1) CT26 colon carcinoma cell line has published mutanome and transcriptome data, with no known ALK fusion events or oncogenic mutations. Castle et al, BMC Genomics, 15:190 (13 Mar. 2014); Castle et al, CAN 11:3722 (11 Jan. 2012).
(§2) Six- to eight-week old female Balb/c or C57BL/6 mice were purchased from The Jackson Laboratories.
MC38 colon carcinoma cell line was kindly provided by Dr. Antoni Ribas at UCLA, California. Cells were cultured in DMEM medium supplemented with 10% fetal bovine serum, and 100 I.U./mL penicillin/streptomycin at 37° C. in an atmosphere of 5% CO2 in air, and IMPACT-tested for pathogens at Research Animal Diagnostic Laboratory (RADIL) (Columbia, Mo.). Pathogen-free cells growing in an exponential growth phase were harvested and used for tumor inoculation.
For the MC38 study, C57BL/6 mice were inoculated subcutaneously in the right lower flank with 0.2×10^6 MC38 colon carcinoma cells. When tumor bearing mice achieved a mean tumor volume of 50 to 150 mm^3, mice were randomly assigned to 1 of 4 treatment groups, n=10.

[5] = test system: MC38 colon carcinoma; experiment: In vivo tumor efficacy, MC38 model, crizotinib with avelumab (Example 5); parameters: species or system C57BL/6 mice; settings: for Tumor Volume (Mean ± SEM): avelumab 20 mg/kg i.p., crizotinib 40 mg/kg orally QD
Description: Avelumab is a fully human IgG1 antibody that recognizes both human and mouse PD-L1. […] Six- to eight-week old female C57BL/6 mice were purchased from The Jackson Laboratories (Farmington, Conn.). Mice were maintained and all animal experiments were conducted according to the protocols approved by the Institutional Animal Care and Use Committee of Rinat, South San Francisco and Worldwide Research and Development (WRD), La Jolla, Pfizer Inc. MC38 colon carcinoma cell line was kindly provided by Dr. Antoni Ribas at UCLA, California. Cells were cultured in DMEM medium supplemented with 10% fetal bovine serum, and 100 I.U./mL penicillin/streptomycin at 37° C. in an atmosphere of 5% CO2 in air, and IMPACT-tested for pathogens at Research Animal Diagnostic Laboratory (RADIL) (Columbia, Mo.). Pathogen-free cells growing in an exponential growth phase were harvested and used for tumor inoculation. […] Human IgG1 was prepared in-house (Lot No. NB123249p192CA110124). […] Body weight was recorded weekly. […] Mice were monitored for tumor growth and body weight changes.

[6] = test system: CT26 colon carcinoma; experiment: In vivo tumor efficacy, CT26 model, crizotinib or alectinib with anti-PD-L1 (Example 3); parameters: species or system Balb/c mice
Excerpt: as §1, §2
CT26 cell lines, anti-PD-L1 antibody and Rat IgG isotypes (IgG2a and IgG2b) were purchased from BioXCell (clones 2A3 and LTF2, respectively) and prepared as described in Example 2 above. […]

SMILES: CNC(=O)c1ccccc1Sc1ccc2c(/C=C/c3ccccn3)n[nH]c2c1 [Axitinib, axitinib]
- Toxicity in peripheral blood mononuclear cells [1]: only minor toxicity effects
- Luciferase RLU (T cell viability) ([2]; μM: 0): 92.63 ± 0.5221 RLU
- Luciferase RLU (T cell viability) ([2]; μM: 1): 89.79 ± 1.428 RLU
- Luciferase RLU (T cell viability) ([2]; μM: 2): 86.63 ± 0.8779 RLU
- Luciferase RLU (T cell viability) ([2]; μM: 3): 78.81 ± 3.223 RLU
- Luciferase RLU (T cell viability) ([2]; μM: −1): 91.35 ± 1.526 RLU
- Luciferase RLU (T cell viability) ([2]; μM: −2): 95.54 ± 3.15 RLU
- Luciferase RLU (T cell viability) ([2]; μM: −3): 97.36 ± 1.186 RLU
- Thymidine incorporation(CPM) ([3]; μM: 0): 437978 ± 5214.787 CPM
- Thymidine incorporation(CPM) ([3]; μM: 1): 385672.3 ± 9004.015^ CPM
- Thymidine incorporation(CPM) ([3]; μM: 2): 300379.3 ± 25594 CPM
- Thymidine incorporation(CPM) ([3]; μM: 3): 291128.7 ± 31076.09^ CPM
- Thymidine incorporation(CPM) ([3]; μM: −1): 407235 ± 52888.48 CPM
- Thymidine incorporation(CPM) ([3]; μM: −2): 408592.3 ± 11690 CPM
- Thymidine incorporation(CPM) ([3]; μM: −3): 394950 ± 19054.05 CPM

SMILES: C[C@@H](Oc1cc(-c2cnn(C3CCNCC3)c2)cnc1N)c1c(Cl)ccc(F)c1Cl [crizotinib, 3-[(1R)-1-(2,6-dichloro-3-fluorophenyl)ethoxy]-5-(1-piperidin-4-ylpyrazol-4-yl)pyridin-2-amine]
- Tumor Volume (Mean ± SEM) ([4]; Day 7): 78.1 ± 6.0 mm^3
- Tumor Volume (Mean ± SEM) ([4]; Day 14): 169.7 ± 16.3 mm^3
- Tumor Volume (Mean ± SEM) ([4]; Day 19): 291.7 ± 26.2 mm^3
- Tumor Volume (Mean ± SEM) ([4]; Day 24): 580.5 ± 67.0 mm^3
- Tumor Volume (Mean ± SEM) ([4]; Day 27): 836.5 ± 137.8 mm^3
- Tumor Volume (Mean ± SEM) ([5]; Day 7): 78.1 ± 6.0 mm^3
- Tumor Volume (Mean ± SEM) ([5]; Day 14): 169.7 ± 16.3 mm^3
- Tumor Volume (Mean ± SEM) ([5]; Day 19): 291.7 ± 26.2 mm^3
- Tumor Volume (Mean ± SEM) ([5]; Day 24): 580.5 ± 67.0 mm^3
- Tumor Volume (Mean ± SEM) ([5]; Day 27): 836.5 ± 137.8 mm^3
- TGI ([5]; compared with the isotype control antibody treated group, avelumab 20 mg/kg, crizotinib 40 mg/kg): 48.5%
- Effect on T cell viability ([2]; FIG. 1B): did not result in dose-dependent decreases in T cell viability
- Luciferase RLU (T cell viability) ([2]; μM: 0): 94.22 ± 1.814 RLU
- Luciferase RLU (T cell viability) ([2]; μM: 1): 91.72 ± 2.354 RLU
- Luciferase RLU (T cell viability) ([2]; μM: 2): 64.24 ± 3.748 RLU
- Luciferase RLU (T cell viability) ([2]; μM: 3): 1.474 ± 0.1693 RLU
- Luciferase RLU (T cell viability) ([2]; μM: −1): 95.6927 ± 1.827 RLU
- Luciferase RLU (T cell viability) ([2]; μM: −2): 93.68 ± 1.564 RLU
- Luciferase RLU (T cell viability) ([2]; μM: −3): 89.08 ± 2.843 RLU
- Tumor Volume (Mean ± SEM) ([6]; Day 7, crizotinib 5 mg/kg (alone or with anti-mPDL1)): 90.3 ± 8.1 mm^3
- Tumor Volume (Mean ± SEM) ([6]; Day 7, crizotinib 20 mg/kg (alone or with anti-mPDL1)): 90.3 ± 8.0 mm^3
- Tumor Volume (Mean ± SEM) ([6]; Day 7, crizotinib 40 mg/kg (alone or with anti-mPDL1)): 94.4 ± 7.9 mm^3
- Tumor Volume (Mean ± SEM) ([6]; Day 10, crizotinib 5 mg/kg (alone or with anti-mPDL1)): 140.9 ± 18.0 mm^3
- Tumor Volume (Mean ± SEM) ([6]; Day 10, crizotinib 20 mg/kg (alone or with anti-mPDL1)): 156.1 ± 21.9 mm^3
- Tumor Volume (Mean ± SEM) ([6]; Day 10, crizotinib 40 mg/kg (alone or with anti-mPDL1)): 127.0 ± 9.8 mm^3
- Tumor Volume (Mean ± SEM) ([6]; Day 14, crizotinib 5 mg/kg (alone or with anti-mPDL1)): 246.6 ± 54.7 mm^3
- Tumor Volume (Mean ± SEM) ([6]; Day 14, crizotinib 20 mg/kg (alone or with anti-mPDL1)): 234.2 ± 49.0 mm^3
- Tumor Volume (Mean ± SEM) ([6]; Day 14, crizotinib 40 mg/kg (alone or with anti-mPDL1)): 218.5 ± 31.5 mm^3
- Tumor Volume (Mean ± SEM) ([6]; Day 18, crizotinib 5 mg/kg (alone or with anti-mPDL1)): 407.1 ± 122.2 mm^3
- Tumor Volume (Mean ± SEM) ([6]; Day 18, crizotinib 20 mg/kg (alone or with anti-mPDL1)): 299.3 ± 67.1 mm^3
- Tumor Volume (Mean ± SEM) ([6]; Day 18, crizotinib 40 mg/kg (alone or with anti-mPDL1)): 319.6 ± 47.7 mm^3
- Tumor Volume (Mean ± SEM) ([6]; Day 22, crizotinib 5 mg/kg (alone or with anti-mPDL1)): 749.8 ± 220.0 mm^3
- Tumor Volume (Mean ± SEM) ([6]; Day 22, crizotinib 20 mg/kg (alone or with anti-mPDL1)): 631.3 ± 158.5 mm^3
- Tumor Volume (Mean ± SEM) ([6]; Day 22, crizotinib 40 mg/kg (alone or with anti-mPDL1)): 685.3 ± 101.1 mm^3
- Tumor Volume (Mean ± SEM) ([6]; Day 25, crizotinib 5 mg/kg (alone or with anti-mPDL1)): 1161.1 ± 415.4 mm^3
- Tumor Volume (Mean ± SEM) ([6]; Day 25, crizotinib 20 mg/kg (alone or with anti-mPDL1)): 934.9 ± 223.8 mm^3
- Tumor Volume (Mean ± SEM) ([6]; Day 25, crizotinib 40 mg/kg (alone or with anti-mPDL1)): 1074.5 ± 136.2 mm^3
- Anti-tumor effect in CT26 model ([6]; compared to isotype control or single agents): no anti-tumor effects
- Effect on T cell proliferation ([3]; activated T cells, FIG. 1A): did not have adverse effects on T cell proliferation
- Thymidine incorporation(CPM) ([3]; μM: 0): 432360.3 ± 29488.63 CPM
- Thymidine incorporation(CPM) ([3]; μM: 1): 436099.3 ± 34171.33 CPM
- Thymidine incorporation(CPM) ([3]; μM: 2): 270672.7 ± 18298.53 CPM
- Thymidine incorporation(CPM) ([3]; μM: −1): 438641 ± 47103.88 CPM
- Thymidine incorporation(CPM) ([3]; μM: −2): 442995.3 ± 42508.08 CPM
- Thymidine incorporation(CPM) ([3]; μM: −3): 421221.3 ± 24333.6 CPM
